The record followed here is patent US11306102B2, “1,3-di-substituted ketene compound and application thereof” (BEBETTER MED INC., priority 2017, dated 2022).

The term EC50 denotes the concentration giving half of the maximal effect.

One assay has as its target T1, PPARδ (Homo sapiens, UniProt Q03181).
T1 construct: expressed in transfected cells; host or cells: Hela cells
T1 sequence (Q03181 1-441): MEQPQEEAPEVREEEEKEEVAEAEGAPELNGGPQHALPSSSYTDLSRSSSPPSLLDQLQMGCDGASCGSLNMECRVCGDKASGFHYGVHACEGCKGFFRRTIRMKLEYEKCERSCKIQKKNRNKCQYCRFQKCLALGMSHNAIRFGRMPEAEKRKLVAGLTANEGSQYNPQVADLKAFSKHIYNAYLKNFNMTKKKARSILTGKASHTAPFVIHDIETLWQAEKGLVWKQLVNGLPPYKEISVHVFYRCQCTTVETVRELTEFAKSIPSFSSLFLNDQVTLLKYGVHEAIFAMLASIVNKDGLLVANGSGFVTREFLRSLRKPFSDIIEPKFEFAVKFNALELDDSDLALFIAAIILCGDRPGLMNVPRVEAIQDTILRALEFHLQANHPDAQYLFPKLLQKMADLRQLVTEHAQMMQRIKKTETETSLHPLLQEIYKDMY
Briefly: Hela cell/luciferase reporter gene method, PPARδ agonist activity. Type of assay: cell-based. The conditions noted are these: Hela cells, pPPRE3-TK-Luciferase reporter, 24 hrs incubation; read-out: agonistic activity on PPARδ (EC50). Here is the method: This example measures the biological activity of a PPAR agonist using the Hela cell/luciferase reporter gene method.
The target plasmids PCMV PPARα (Ampicillin+), PCMV PPARγ (Ampicillin+), PCMV PPARδ (Ampicillin+), and pPPRE3-TK-Luciferase (Ampicillin+) were introduced into DH5a competent cells by heat shock treatment, respectively. After being incubated for 1 hour at 37° C. with shaking (180 rpm), the cells were inoculated on LB agar solid medium containing antibiotic Ampicillin, and invertedly cultured at 37° C. for 12-16 hours. Then the monoclonal colony cultured on the medium was taken and inoculated into LB liquid medium for expanded culture. […] The plasmid obtained by centrifugation was suspended in TE buffer, and the plasmid concentration was measured and the mixture was stored at −20° C. Hela cells in the exponential phase were seeded in 6-well plates (8-10^5 cells/well), and after 6-8 hours of culture, the cells were transfected using Lipofectamine® 3000 Transfection Reagent (Invitrogen; #L3000015). A plasmid containing a PPAR binding site (peroxisome proliferator response element, PPRE) and a firefly luciferase gene (pPPRE3-TK-Luciferase) and PPAR expression vector were co-transfected into a Hela cell with a total amount of plasmid DNA of 2.5 ug (the mass ratio of each PPAR expression vector is pPPRE:PPARα=6:1, pPPRE:PPARδ=8:1, and pPPRE:PPARγ=2:1) to construct a drug screening cell model for PPAR agonists. PPAR was binded to the ligand and then binded to the peroxisome proliferator response element (PPRE), thereby initiating downstream firefly luciferase expression and its expression intensity was directly proportional to the degree of PPAR activation. The cells after 24 hours transfection were prepared into a cell suspension with a cell concentration of […] by a complete culture solution, and seeded into a 96-well plate with 100 ul per well. After overnight culture, the medium was changed to a medium containing 1% FBS. 10 mM candidate compound stock (1000×) were 4-fold diluted in DMSO for 8 points, then supplemented with medium containing 1% FBS to a final concentration of 50 uM (5×) by addition of 25 μl of 5× compound diluent to each well in different concentration gradients and incubated under 37° C., 5% CO2 incubator for 24 hrs. The 96-well plate was taken out and 30 μl of Bright-Glo™ Luciferase Assay System (Promega #E2620) was added to each well. The Luciferase luminescence intensity was measured by a SynergyH1 full-function microplate detector. The obtained data was used to calculate EC50 using GraphPad Prism 5.0 software to determine the biological activity of the compound.
(In general: Reporter assays use an easily measured gene product as a stand-in for the process of interest.)
As to `CSc1ccc(C(=O)/C=C/c2cc(C)c(OC(C)(C)C(=O)O)c(C)c2)c2occc12` [Compound 5, (E)-2-(2,6-dimethyl-4-(3-(4-(methylthio)benzofuran-7-yl)-3-oxoprop-1-en-1-yl)phenoxy)-2-methylpropanoic acid], the concentration for a half-maximal effect (EC50) came to 36 nM.
On the same count and under the same terms, then `CCSc1ccc(C(=O)/C=C/c2cc(C)c(OC(C)(C)C(=O)O)c(C)c2)c2occc12` [Compound 6, (E)-2-(4-(3-(4-(ethylthio)benzofuran-7-yl)-3-oxoprop-1-en-1-yl)-2,6-dimethylphenoxy)-2-methylpropanoic acid], with 119 nM; and `CSc1ccc(C(=O)/C=C/c2cc(C)c(OC(C)(C)C(=O)O)c(C)c2)c2ccoc12` [Compound 27, (E)-2-(2,6-dimethyl-4-(3-(7-(methylthio)benzofuran-4-yl)-3-oxoprop-1-en-1-yl)phenoxy)-2-methylpropanoic acid], with 604 nM.
Same read-out and setting: with `Cc1cc(/C=C/C(=O)c2ccc3c(c2)CCS3)cc(C)c1OC(C)(C)C(=O)O` [Compound 36, (E)-2-(4-(3-(2,3-dihydrobenzo[b]thiophen-5-yl)-3-oxoprop-1-en-1-yl)-2,6-dimethylphenoxy)-2-methylpropanoic acid] the figure was 120 nM; with `COc1ccc2cc(C(=O)/C=C/c3cc(C)c(OC(C)(C)C(=O)O)c(C)c3)oc2c1` [Compound 43, (E)-2-(4-(3-(6-methoxybenzofuran-2-yl)-3-oxoprop-1-en-1-yl)-2,6-dimethylphenoxy)-2-methylpropanoic acid], 335 nM.
Same read-out and setting: with `CSc1ccc2cc(C(=O)/C=C/c3cc(C)c(OC(C)(C)C(=O)O)c(C)c3)oc2c1` [Compound 51, (E)-2-(2,6-dimethyl-4-(3-(6-(methylthio)benzofuran-2-yl)-3-oxoprop-1-en-1-yl)phenoxy)-2-methylpropanoic acid] the figure was 64.9 nM; with `CSc1cccc2oc(C(=O)/C=C/c3cc(C)c(OC(C)(C)C(=O)O)c(C)c3)cc12` [Compound 60, (E)-2-(2,6-dimethyl-4-(3-(4-(methylthio)benzofuran-2-yl)-3-oxoprop-1-en-1-yl)phenoxy)-2-methylpropanoic acid], 614 nM; with `CSc1ccc2c(C)c(C(=O)/C=C/c3cc(C)c(OC(C)(C)C(=O)O)c(C)c3)oc2c1` [Compound 62, (E)-2-(2,6-dimethyl-4-(3-(3-methyl-6-(methylthio)benzofuran-2-yl)-3-oxoprop-1-en-1-yl)phenoxy)-2-methylpropanoic acid], 210 nM.
Regarding `CCc1c(C(=O)/C=C/c2cc(C)c(OC(C)(C)C(=O)O)c(C)c2)oc2cc(SC)ccc12` [Compound 63, (E)-2-(4-(3-(3-ethyl-6-(methylthio)benzofuran-2-yl)-3-oxoprop-1-en-1-yl)-2,6-dimethylphenoxy)-2-methylpropanoic acid], the EC50 was 205 nM.
Same read-out and setting: with `CCSc1ccc2c(C)c(C(=O)/C=C/c3cc(C)c(OC(C)(C)C(=O)O)c(C)c3)oc2c1` [Compound 74, (E)-2-(4-(3-(6-(ethylthio)-3-methylbenzofuran-2-yl)-3-oxoprop-1-en-1-yl)-2,6-dimethylphenoxy)-2-methylpropanoic acid] the figure was 144 nM.
The same measure, in the same setting: then `CSc1ccc2cc(C(=O)/C=C/c3cc(C)c(OC(C)(C)C(=O)O)c(C)c3)sc2c1` [Compound 81, (E)-2-(2,6-dimethyl-4-(3-(6-(methylthio)benzo[b]thiophen-2-yl)-3-oxoprop-1-en-1-yl)phenoxy)-2-methylpropanoic acid], with 3640 nM; and `CSc1ccc2cc(C(=O)/C=C/c3cc(Cl)c(OC(C)(C)C(=O)O)c(Cl)c3)oc2c1` [Compound 100, (E)-2-(2,6-dichloro-4-(3-(6-(methylthio)benzofuran-2-yl)-3-oxoprop-1-en-1-yl)phenoxy)-2-methylpropanoic acid], with 87.1 nM; and `CSc1ccc2c(C)c(C(=O)/C=C/c3cc(Cl)c(OC(C)(C)C(=O)O)c(Cl)c3)oc2c1` [Compound 103, (E)-2-(2,6-dichloro-4-(3-(3-methyl-6-(methylthio)benzofuran-2-yl)-3-oxoprop-1-en-1-yl)phenoxy)-2-methylpropanoic acid], with 164 nM.

The same assay, now with this note: compared with Elafibranor.
For the molecule `CSc1ccc2cc(C(=O)/C=C/c3cc(C)c(OC(C)(C)C(=O)O)c(C)c3)oc2c1` [Compound 51, (E)-2-(2,6-dimethyl-4-(3-(6-(methylthio)benzofuran-2-yl)-3-oxoprop-1-en-1-yl)phenoxy)-2-methylpropanoic acid], the “increased activity for activation of PPARδ compared with Elafibranor” value worked out at 2 fold.
